What all share (format): cell-based
One test concerns rabbit spleen cells.
The test system of another test is mouse spleen cells. The test is described as follows: IF induction in vitro, mouse (Table 6). The following applies: control 1.0 μg/ml. As to the method: (§1) A spleen cell suspension (10^7 cells/ml) was prepared by the method of hereinafter described Experiment 1 using an Eagle MEM medium (commercial product of Nissui Seiyaku K.K., Tokyo) containing a 10% calf serum (which was replaced by a 10% fetal cattle serum in the cases of human tests), each of which fraction (1 ml) was added with a given concentration of the sample of the active substance and incubated at a given temperature. The cultured liquor was centrifuged to separate a supernatant which was used for determining the IF activity induced. In the case of humans, the fresh spleen was collected from a person (adult deceased by external wounds) and used for the preparation of a leucocytes suspension on each occasion, and also blood was collected from the vein at the upper arm of a person (adult), from which the serum was separated to use for the preparation of a serum suspension on each occasion.
(§2) The IF activities were determined by using the cells shown in Table 5 in a similar manner to that hereinafter described in Experiment 1.

For a further test, the system named is human spleen cells. The test is described as follows: IF induction in vitro, human spleen (Table 6). The following applies: control 1.0 μg/ml. As to the method: as §1, §2

With Poly I:C, the “IF activity in vitro (Control)” value with rabbit spleen cells was 220; with mouse spleen cells it was 120; in the test on human spleen cells, less than 5.
